In ChEMBL document CHEMBL3243976, “Ring D oxygenated Spirolactones. Characterization of human metabolic product of spironolactone” (1977):

Columns and labels:
Assay type in all cases: functional, Urine
Rattus norvegicus [1] = assay: Antimineralocorticoid activity in adrenalectomized rat assessed as urinary log (Na X 10)/K at 2.4 mg, sc administered post deoxycorticosterone acetate treatment relative to control
Rattus norvegicus [2] = assay: Antimineralocorticoid activity in adrenalectomized rat assessed as urinary log (Na X 10)/K at 2.4 mg, sc administered post deoxycorticosterone acetate treatment relative to spironolactone
Rattus norvegicus [3] = assay: Antimineralocorticoid activity in po dosed adrenalectomized rat assessed as urinary log (Na X 10)/K administered post deoxycorticosterone acetate treatment relative to spironolactone
Rattus norvegicus [4] = assay: Antimineralocorticoid activity in sc dosed adrenalectomized rat assessed as urinary log (Na X 10)/K administered post deoxycorticosterone acetate treatment relative to spironolactone

Compound | T/C (Rattus norvegicus [1]) | further results
C[C@]12CCC(=O)C=C1C=C[C@@H]1[C@@H]2CC[C@@]2(C)[C@H]1C(=O)C[C@@]21CCC(=O)O1 | 1.01 | Activity (Rattus norvegicus [2]): 15%
CC(=O)O[C@H]1C[C@@]2(CCC(=O)O2)[C@@]2(C)CC[C@H]3[C@@H](C=CC4=CC(=O)CC[C@@]43C)[C@H]12 | 0.77 | 
C[C@]12CCC(=O)C=C1C=C[C@@H]1[C@@H]2CC[C@@]2(C)[C@H]1C[C@H](O)[C@@]21CCC(=O)O1 | 0.84 | 
C[C@]12CCC(=O)C=C1C=C[C@@H]1[C@@H]2CC[C@@]2(C)[C@H]1CC[C@@]21CCC(=O)O1 [CANRENONE] |  | Activity (Rattus norvegicus [3]): 35%; Activity (Rattus norvegicus [4]): 38%
C[C@]12CCC(=O)C=C1C=CC1=C3CC[C@@]4(CCC(=O)O4)[C@@]3(C)CC[C@@H]12 | 0.82 | 
C[C@]12CCC(=O)C=C1C=C[C@H]1C3=CC[C@@]4(CCC(=O)O4)[C@@]3(C)CC[C@@H]12 | 0.67 | 
C[C@]12CCC(=O)C=C1C=C[C@H]1[C@@H]3[C@@H](O)C[C@@]4(CCC(=O)O4)[C@@]3(C)CC[C@@H]12 | 0.62 | 
